According to US12329739B2, “Isoflavonoid compounds and methods for the treatment of cancer” (Aardvark Therapeutics, Inc., priority 2010, dated 2025):

Columns and labels:
A2058 = experiment: MTT proliferation assay, A2058; assay type: cell-based
Experimental: (§1) Proliferation Assays. IC50 values were determined for each cell line. Cells were seeded in 96-well plates at an appropriate cell density as determined from growth kinetics analysis and cultured for 5 days in the absence and presence of the test compounds. Cell proliferation was assessed after the addition of 20 μl of 3-4,5 dimethylthiazol-2,5-diphenyl tetrazolium bromide (MTT, 5 mg/ml in PBS, Sigma) for 5 hrs at 37° C. according to manufacturer's instructions. IC50 values were calculated from semi-log plots of % of control proliferation on the y-axis against log dose on the x-axis.
(§2) Anti-proliferative Activity of Isoflavonoid Derivatives. IC50 values were determined for each cell line after 120 h of exposure.

LNCaP = experiment: MTT proliferation assay, LNCaP; assay type: cell-based; conditions: Homo sapiens, Prostate, 120 h of exposure
Experimental: as §1, §2

MDA-MB-468 = experiment: MTT proliferation assay, MDA-MB-468; assay type: cell-based, human
Experimental: The human gastric cancer cell line AGS (CRL-1739) was cultured in Hams F-12K (Kaighans modification) medium containing 2 mM L-glutamine, 2.5 g/L sodium bicarbonate and 2 mM sodium pyruvate. The human breast adenocarcinoma line MDA-MB-468 (HTB-132) was cultured in DMEM:F12 (1:1) medium containing 2.5 mM L-glutamine, 2.4 g/L sodium bicarbonate, supplemented with an additional 2 mM L-glutamine.
as §1, §2

[1] = test system: A2780 ovarian cancer cells; experiment: Combination with carboplatin, proliferation of A2780 cells; assay type: cell-based
Experimental: In vitro toxicity in normal and cancer cells. Cells were seeded in 96-well plates at an appropriate cell density as determined from growth kinetics analysis. Depending on the plating efficiency and lag phase of individual cell lines, cells were allowed to plate down prior to drug exposure. Intra-experimental single agent controls were included to ensure IC50 values obtained for each cell line matched previous IC50 determinations. Four analogue concentrations were employed in each analysis. Analogue concentrations used in each assay were chosen based on IC50 values, which formed the top concentration of analogue used. Subsequent concentrations were chosen based on simple ½ or 1/10 dilutions of the top analogue concentration employed (i.e. 2, 1, 0.5, 0.25 μM). Nine 1/10 serial dilutions of chemotherapeutic were employed with the top chemotherapeutic concentration being 50 μM.
For combined analysis, analogue concentrations were held constant through 1/10 serial dilutions of chemotherapeutic in growth medium (top chemotherapeutic concentration employed was 50 μM). Combined cultures were cultured for 5 days.
The sequence of administration effect of each agent on chemotherapeutic IC50 values was assessed by exposing plated cells to a single agent in sequence for 24 hr. To assess the isoflavonoid derivative→chemotherapeutic sequence, plated cells were first exposed to the appropriate analogue concentrations and incubated at 37° C. for 24 hr. Cells were washed with growth medium and then exposed to the appropriate chemotherapeutic concentrations and incubated for 24 hr. Cells were then washed and incubated for a further 3 days. To assess the chemotherapeutic→isoflavonoid derivative sequence, the procedure was reversed.
Cell proliferation was assessed after the addition of 20 μl of 3-4,5 dimethylthiazol-2,5-diphenyl tetrazolium bromide (MTT, 2.5 mg/ml in PBS, Sigma) for 3-4 hrs at 37° C. according to manufacturer's instructions. IC50 values were calculated from semi-log plots of % of control proliferation on the y-axis against log dose on the x-axis.
3-D model analysis of the cytotoxic interaction between drug A and drug B enables the representation of predicted inhibitory effect of two drugs in combination in 3 dimensions to reveal actual regions of synergy or antagonism. The 3D synergy plots are based on a theory of “Theoretical Additivity” (TA or […]) as outlined by Kanzawa et al. Theoretical Additivity was calculated from the cytotoxicities of drug A and drug B as monotherapies using the following formula which assumes the drugs are mutually exclusive inhibitors: […]
The TA is calculated for each combination of drug concentrations and subtracted from the observed experimental effect for each combination to give a measurement of synergistic or enhanced action.
Combination index (CI) analysis, which employs the median-effect principle correlating drug dose to cytotoxicity, was also employed to assess synergy. The median-effect equation is utilized to calculate the dose of a drug that inhibits “x” percent of cells (Chou and Talalay, 1984). D=Dm[fa/(1−fa)]^1/m
In vitro Assessment of Combination of Optically Active Compound 31 and Carboplatin. Combination studies employed both 24 hr concurrent exposure, and 24 hr sequential exposure (racemic compound 32→Carboplatin) regimens. In both studies, four analogue concentrations (0.25, 0.5, 1 and 5 μM) were held constant against titrated carboplatin. When 1 and 5 μM of compound 32 was assessed in combination with the lowest concentration of carboplatin employed in this study (0.4 μM), no IC50 for carboplatin was achieved due the high levels of cell kill observed (30-40% of control).

PC3 = experiment: MTT proliferation assay, PC3; assay type: cell-based
Experimental: as §1, §2

HuH-7 = experiment: MTT proliferation assay, HuH-7; assay type: cell-based, human; conditions: Homo sapiens; Liver, HuH-7, 120 h of exposure
Experimental: The human hepatocellular carcinoma lines HepG2 (HB-8065), SK-HEP-1 (HTB-52) and the normal human lung fibroblast line IMR-90 (CCL-186) were cultured in Minimum Essential Eagles Medium containing 2 mM L-glutamine, 2.2 g/L sodium bicarbonate, supplemented with 1 mM sodium pyruvate and 0.1 mM non-essential amino acids. The human hepatocellular carcinoma line JHH-1 (JCRB1062) was cultured in Williams E Medium (Invitrogen) containing 2.2 g/L sodium bicarbonate, supplemented with 2 mM L-glutamine. The hepatocellular carcinoma line HuH-7 (JCRB0403) was cultured in DMEM, supplemented with 2 mM L-glutamine.
as §1, §2

SMILES: Oc1ccc([C@H]2c3ccc(O)cc3OC[C@H]2c2ccc(O)cc2)cc1 [Compound 31, d-cis-3-(4-hydroxyphenyl)-4-(4-hydroxyphenyl)chroman-7-ol]
- IC50 (A2058; Homo sapiens, A2058, 120 h, Melanoma, A2058, 120 h of exposure): ≤ 150 nM
- IC50 (A2058; Table 2, Melanoma, A2058, 120 hrs of exposure): ≤ 150 nM
- IC50 (LNCaP): 150 to 500 nM
- IC50 (MDA-MB-468; Homo sapiens, MDA-MB-468, 120 h, Breast, MDA-MB-468, 120 h of exposure): ≤ 150 nM
- IC50 (MDA-MB-468; Table 2, Breast, MDA-MB-468, 120 hrs of exposure): ≤ 150 nM
- enhancement of the anti-cancer effect of carboplatin ([1]; 0.25 μM of compound, A2780, depending on exposure regimen (24 hr concurrent or sequential)): 7-11 fold
- potency of the inhibition of proliferation compared with compound 34 ([1]; 0.5 μM of compound in combination with carboplatin, A2780): superior
- compound concentration giving maximal activity enhancement with carboplatin ([1]; 3D method of Kanzawa, 12.5 μM carboplatin, A2780): 0.25 µM
- activity enhancement in combination with carboplatin ([1]; A2780 cell line, 31 compared with compound 32): superior in its ability to augment carboplatin toxicity
- retardation of A2780 cell proliferation compared with compound 34 ([1]; sequential exposure (24 h), 0.25 μM of compound followed by carboplatin): superior retardation of A2780 cell proliferation
- IC50 (PC3; Homo sapiens, PC-3, 120 h, Prostate, PC3, 120 h of exposure): 150 to 500 nM
- IC50 (PC3; Table 2, Prostate, PC3, 120 hrs of exposure): 150 to 500 nM
- IC50 (HuH-7): 150 to 500 nM
